US10398689B2, “Benzopiperidine derivative, preparation method thereof and medical use thereof” (Jiangsu Hengrui Medicine Co., Ltd., priority 2015, dated 2019)

What was measured:
Format in all cases: cell-based
ERα = target: T1, ERα (Homo sapiens, UniProt P03372); experiment: Degradation effect on ERα in MCF-7 cells (ERα Duoset ELISA); settings: MCF7; compound at 3 μM, relative to positive control AZD-9496 at 3 μM set to 100%
T1 construct: host or cells: MCF-7
T1 sequence (P03372 1-595): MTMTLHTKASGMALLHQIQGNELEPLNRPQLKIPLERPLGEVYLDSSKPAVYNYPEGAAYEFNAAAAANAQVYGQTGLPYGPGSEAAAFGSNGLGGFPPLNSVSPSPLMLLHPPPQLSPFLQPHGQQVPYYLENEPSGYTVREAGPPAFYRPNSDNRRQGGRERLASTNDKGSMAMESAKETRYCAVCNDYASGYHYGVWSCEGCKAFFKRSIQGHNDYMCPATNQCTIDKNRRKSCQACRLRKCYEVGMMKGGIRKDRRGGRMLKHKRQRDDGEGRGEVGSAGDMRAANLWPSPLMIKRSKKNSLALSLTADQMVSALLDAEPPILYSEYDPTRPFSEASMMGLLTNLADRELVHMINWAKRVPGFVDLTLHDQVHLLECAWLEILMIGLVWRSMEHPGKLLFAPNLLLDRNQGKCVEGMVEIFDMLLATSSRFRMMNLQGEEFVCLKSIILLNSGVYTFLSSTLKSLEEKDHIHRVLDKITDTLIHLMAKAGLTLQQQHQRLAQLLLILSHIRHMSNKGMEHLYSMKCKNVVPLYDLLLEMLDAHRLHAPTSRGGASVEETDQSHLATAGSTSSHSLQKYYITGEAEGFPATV
Description: In order to determine the degradation effect on ER induced by the compound of present invention, the following method was used to determine the degradation effect of the compounds of the present invention on ER.
MCF-7 cell line (TChu 74, Cell Bank of Chinese Academy of Sciences typical culture preservation Committee)
ERα Duoset Kit (#DYC5715E, R&D System)
MCF-7 cells well incubated in DMEM/F-12 medium containing 10% FBS.
On the first day of the experiment, MCF-7 cells were resuspended in DMEM/F-12 medium containing 10% FBS treated by activated carbon, then inoculated into a 48-well plate with a density of 50,000 cells/well and incubated for 22-24 hours.
On the second day of the experiment, the test compound was diluted with medium and added to a 48-well plate. The ERα-capture antibody was diluted to 1 μg/ml with PBS, and added with 100 μl/well to a 96-well plate at 100 μl/well. The plate was sealed and coated overnight at room temperature.
On the third day of the experiment, the coated 96-well plate was washed twice with PBS, added with a sealing solution (1% BSA in PBS) at 110 μl/well and sealed for 1 hour at room temperature. The 48-well plate was washed once and the residual liquid was removed. Then, 60 μl of lysis buffer (6 M urea, 1 mM EDTA, 0.5% Triton X-100, 1 mM PMSF, Protease Inhibitor cocktail) was added to each well. After lysis on ice for 15 minutes, the diluent (1 mM EDTA, 0.5% TritonX-100 dissolved in PBS) was added. The cell-diluted lysate was transferred to a 96-well plate at 100 μl/well, then the plate was incubated at room temperature for 2 hours. The diluted primary antibody was added after the plate was washed 4 times with a washing liquid (PBST). After incubation for 1 hour, the 96-well plate was washed 4 times, and the second antibody was added, then the plate was incubated for 30 minutes. After the plate was washed with a washing liquid, TMB chromogenic solution was added and incubated for 15 minutes. The reaction was stopped by the addition of 1 M H2SO4, then the light absorption at a wavelength of 450 nm was read. The degradation effect of the compound AZD9496 at 3 μM was set to 100%, the Emax of other compounds=(ODnegative control−ODcompound 3 μM)/(ODnegative control−ODAZD9496 3 μM)×100%, and the negative control was a well with DMSO.

MCF7 cells = experiment: Inhibition of the proliferation of MCF7 cells (Cell Titer-Glo); settings: Homo sapiens, MCF-7 cells, 72 hours, read-out: IC50 value of inhibition effect on the proliferation of MCF7 cells
Description: The object of this experiment was to determine the inhibition effect of the compounds on the proliferation activity of MCF7 cells, and the in vitro activity of the compounds was evaluated according to the IC50 values.
MCF-7 cells (Cell Bank of Chinese Academy of Sciences typical culture preservation Committee, TChu 74) were inoculated into the MEM medium (Hyclone, SH30024.01B) containing 10% FBS (Gibco, 10099-141), 1% sodium pyruvate (Sigma, S8636), and 1% nonessential amino acids (Sigma, M7145) in a 96-well plate with a density of 40,000 cells/well, and the cells were incubated under the conditions of 37° C., and 5% CO2. The compound was prepared as a 20 mM stock solution that was later diluted to 1000× final concentration with 100% DMSO, and then diluted with 20-fold medium containing 2% FBS. After incubation for 24 hours, the medium was removed and 90 μl of the medium containing 2% FBS and 10 μl of the drug were added to each well, 10 […] of DMSO was added to the control group, and the blank group contained only 100 μl medium containing 2% FBS. The plate was gently shaken and incubated in a incubator at 37° C., 5% CO2. After 72 hours later, 50 μl of mixed Cell Titer-Glo (Promega, G7571) was added to each well. The plate was shaken until the ingredients were mixed uniformly, and placed at room temperature for 10 minutes, then the chemiluminescence signal value was determined. The inhibition effect of the compound AZD9496 at 100 nM on the proliferation of MCF-7 cells was set to 100%, the maximum inhibition rate of other compounds=(chemiluminescence signal valuenegative control−chemiluminescence signal valuecompound 100 nm)/(chemiluminescence signal valuenegative control−chemiluminescence signal valueAZD9496 100 nm)×100%, and the negative control was a well with 0.5% DMSO.
The values of the chemiluminescence signals vs the logarithmic concentrations of the compounds were plotted using Graghpad Prism to obtain the IC50 values.

ER (estrogen receptor) = target: T2, ER (estrogen receptor) (Homo sapiens, UniProt P03372); experiment: Inhibition of the binding of estrogen (E) to estrogen receptor (ER), MCF-7/ERE-luciferase reporter cells; settings: MCF-7/ERE-luciferase cells, 0.1 nM estradiol, 24 hours, chemiluminescence; read-out: IC50 value of inhibition effect on the binding of E to ER
T2 construct: MCF-7/ERE-luciferase monoclonal cells were selected by transfection of MCF-7; host or cells: MCF-7/ERE-luciferase (only the ERE-luciferase reporter was transfected)
T2 sequence (P03372 1-595): T1 sequence (P03372 1-595)
Description: The compounds of the present invention have an inhibition effect on the binding of E (estrogen) to ER (estrogen receptor), thereby blocking the binding of a complex of E and ER complex to ERE (estrogen responsive element), and subsequently blocking the expression of downstream luciferase protein.
The inhibition effect of the compounds on the binding of E to ER in vitro was tested by the following method.
The object of this experiment was to determine the inhibition effect of the compounds on the binding of E to ER, and the in vitro activity of the compounds was evaluated according to the IC50 values.
ERE was cloned into the upstream of the luciferase gene, and MCF-7/ERE-luciferase monoclonal cells were selected by transfection of MCF-7 (Cell Bank of Chinese Academy of Sciences typical culture preservation Committee, TCHu74). MCF-7/ERE-luciferase cells were inoculated into the MEM medium (hyclone, SH30024.01B) containing 10% charcoal stripped FBS (Moregate, FBSF), 1% sodium pyruvate (Sigma, S8636), 1% nonessential amino acids (Sigma, M7145) and 500 μg/ml G418 in a 96-well plates with a density of 30,000 cells/well, and the cells were incubated under the conditions of 37° C., and 5% CO2. The drug was prepared as a 20 mM stock solution that was later diluted with 100% DMSO in 10 fold concentration gradient, and then diluted 20-fold with the medium DMEM. After incubation for 24 hours, the medium was removed, then 0.1 nM estradiol (Sigma, E2758) and 10 μl of the drug diluted with the medium were added to each well, and the control group was added with DMSO. The plate was gently shaken and incubated in a incubator at 37° C., 5% CO2. After 24 hours, the cell culture medium was discarded, Then, 50 μl of the prepared luciferase substrate (Promega, E6110) was added to each well, and the plate was placed in the dark at room temperature for 10-15 minutes, then the chemiluminescence signal value was determined.
The inhibition effect of the compounds of the present invention on the binding of E to ER was tested by the experiment described above. The values of the chemiluminescence signal vs the logarithmic concentrations of the compounds were plotted using Graphpad Prism, and the measured IC50 values are shown in Table 1.

Compound	Emax at 3 µM (ERα)	IC50 (MCF7 cells)	IC50 (ER (estrogen receptor))
CC(C)c1ccc(N2[C@@H](c3c(F)cc(/C=C/C(=O)O)cc3F)c3ccc(-c4cnn(C)c4)cc3C[C@@H]2C)cc1 (racemic) [Example 40, (E)-3-(3,5-Difluoro-4-((1S,3R/1R,3S)-2-(4-isopropylphenyl)-3-methyl-6-(1-methyl-1H-pyrazol-4-yl)-1,2,3,4-tetrahydroisoquinolin-1-yl)phenyl)acrylic acid]	115%	230 pM	600 pM
CCc1ccc(N2[C@H](c3ccc(/C=C/C(=O)O)cc3)c3ccc(-c4cnn(C)c4)cc3C[C@H]2C)cc1 [Example 2, (E)-3-(4-((1R,3R)-2-(4-Ethylphenyl)-3-methyl-6-(1-methyl-1H-pyrazol-4-yl)-1,2,3,4-tetrahydroisoquinolin-1-yl)phenyl)acrylic acid]	114%	400 pM	1710 pM
CC1Cc2cc(-c3cnn(C)c3)ccc2C(c2c(F)cc(/C=C/C(=O)O)cc2F)N1c1ccc(C2CC2)cc1 [Example 4, (E)-3-(4-((1S,3R/1R,3S)-2-(4-Cyclopropylphenyl)-3-methyl-6-(1-methyl-1H-pyrazol-4-yl)-1,2,3,4-tetrahydroisoquinolin-1-yl)-3,5-difluorophenyl)acrylic acid]	136%	420 pM	270 pM
COc1ccc(N2C(C)Cc3cc(-c4cnn(C)c4)ccc3C2c2ccc(/C=C/C(=O)O)cc2)cc1 [Example 46, (E)-3-(4-((1R,3R/1S,3S)-2-(4-Methoxyphenyl)-3-methyl-6-(1-methyl-1H-pyrazol-4-yl)-1,2,3,4-tetrahydroisoquinolin-1-yl)phenyl)acrylic acid]	111%	650 pM	1420 pM
